Results published in US20240082232A1, “COMPOSITIONS AND METHODS FOR TREATMENT OF OVARIAN AND BREAST CANCER” (Board of Regents, The University of Texas System, priority 2021, published 2024).
“Also recorded” adds a separate entry of the source.

Columns and labels:
SKOv3 xenografts = assay: SKOv3 subcutaneous xenograft; format: in vivo, mice; details: oral, five times per week, 4 weeks
Protocol: (§1) (^nsp>0.05, *p<0.05; ** p<0.01). […] (^nsp>0.05, *p<0.05; ** p<0.01). […] Scale bar, 50 μM.

MDA-MB-231 xenografts = assay: MDA-MB-231 mammary fat pad xenograft; format: in vivo, mice; details: 5 weeks treatment
Protocol: as §1
Forty female nu/nu mice were injected with 0.8×10^6 MDA-MB-231 cells into their fourth mammary fat pads. […] Tumors were measured every week as noted above (SKOv3 xenograft models).

[1] = test system: SKOv3, OVCAR8, HCC5032, MDA-MB-231 cells; assay: DNA damage: γ-H2AX immunofluorescence and comet assay; format: cell-based, human
Protocol: (A) The Heatmap representation unsupervised hierarchical clustering of differentially expressed genes associated with DNA repair. […] (B) Analysis of DNA Repair and apoptosis genes. BRCA2, EXO1, FANCD2, LIG4, XRCC4, BAX, BCL2, CASP7, and TRADD were analyzed using RT-PCR in OVCAR8 ovarian and MDA-MB-231 breast cancer cells. […] (C) Quantification of DNA damage (γ-H2AX). Endogenous γ-H2AX was stained with anti-γ-H2AX antibody in the cells treated with single agent or combined for 8 hrs as indicated. […] Red indicates γ-H2AX and Blue-DAPI indicates nuclear stain. Representative images are presented (right). Bar 20 […]. Red γ-H2AX dots were quantified with OLYMPUS CellSens Dimension software. […] Bar 20 μm. (D) Detection of apoptosis using Annexin V/Propidium iodide (PI) staining.
(A) The heatmap of unsupervised hierarchical clustering of differently expressed genes associated with apoptosis. […] (B) Analysis of DNA repair and apoptosis gene. […] Representative experiments were from two independent experiment and 3 technical repeats per experiments. (C) Quantification of DNA damage using comet assay. […] Slides were then stained with Vista Green DNA dye and viewed using Olympus fluorescence microscope with FITC filter. Olive Tail Moment was measured using CaspLab1.2.3β2 software. […] Representative experiments were from three independent experiments with a minimum of 50 cells.
Cells were trypsinized and resuspended at 2×10^5/mL in cold PBS without Ca^2+ and Mg^2+. Cells were mixed with pre-warmed comet agarose at 1:10 (v/v) ratio. 10 uL of cell agarose mixture was plated onto comet slides pre-coated with 75 uL of agarose and chilled at 4° C. for 15 min to set. Cells were lysed in 25 mL of Lysis buffer at 4° C. for 2 hrs and washed with alkaline solution (pH 10). Comet slides were electrophoresed in cold alkaline solution at 20V for 15 min. […] Experiments were run in triplicate and Olive Tail Moment was measured using CaspLab1.2.β2 software (CaspLab.com). […] 50-200 Cells were measured for each treatment and experiments were repeated twice independently to ensure reproducibility. […]

DT40 PARP-1 −/− cells = assay: Dose-response in DT40 PARP-1 -/- cells; details: cells lacking PARP1/2
Protocol: Representative data are from three independent experiments with 4 technical repeats per experiment. […] The IC50 indicated on the curves was calculated using GraphPad Prism 8.
To further test this possibility, DT40 PARP-1 −/−cells that lack PARP enzyme activity (avian cells lack PARP2) were treated with SIK2 inhibitors or olaparib.

[2] = test system: SKOv3 and OVCAR8 cells with stable ectopic expression of SIK2; assay: Olaparib dose-response in cells with stable ectopic SIK2 expression
Protocol: (§2) Representative experiments were from two independent experiments with four technical repeats per experiment. (B) Dose-response curves of olaparib in paired cancer cell lines with or without knockout of SIK2 (top) and with or without stable transfection of SIK2 (bottom). The median inhibitory concertation (IC50) of olaparib was calculated using GraphPad Prism 8. Representative experiments are from two independent experiments with four technical repeats per experiment. Western analysis confirmed either SIK2 knock out (top) or overexpression (bottom).
(§3) To exclude potential off-target effects of SIK2 inhibitors, SIK2 was knocked down by CRISPR/Cas9 and stable ectopic expression of SIK2 was established in SKOv3 and OVCAR8 ovarian cancer cells.

[3] = test system: OVCAR8 and MDA-MB-231 xenograft tumors; assay: IHC of xenograft tumors at study termination; format: in vivo, mice
Protocol: as §1
Tumors growing as xenografts were collected for histology with H&E and IHC staining. Routine H&E staining detected high-grade ovarian cancer in ovarian cancer xenograft models and breast cancer morphology in the breast cancer xenograft model, respectively. IHC of OVCAR8 and MDA-MB-231 xenograft tumors at study termination recapitulated in vitro studies.
Formalin fixed and paraffin embedded mouse tissue sections were deparaffinized and rehydrated in gradient ethanol solutions. Antigens were retrieved in Rodent Decloaker (BioCare Medical, RD913M) and microwaved twice in an EZ Retriever System V3 (BioGenex) at 95° C. for 5 min. Tissues were blocked in PeroxAbolish (BioCare Medical, PXA969M) for 30 min, Rodent Block M (BioCare Medical, RBM961L) for 30 min, and 5% BSA in PBS for 30 min Tissues were incubated with primary antibody as indicated overnight at 4° C. VisUCyte HRP Polymer IgG (R&D Systems, VC001-025 for mouse, VC003-025 for rabbit) was applied for 30 min at room temperature followed by DAB chromogenesis (BioCare Medical, BDB2004L). Tissues were counter-stained with CAT hematoxylin (Thermo Fisher, CATHE-M) for 20 sec. The slides were then dehydrated through gradient ethanol solutions and two passes of xylene and sealed with Permount (Thermo Fisher, SP15-100).

[4] = test system: SKOv3 and OVCAR8 SIK2 knock-out cells; assay: Olaparib dose-response in SIK2 knock-out cells; details: SIK2 knock-out by CRISPR/Cas9
Protocol: as §2, §3
OVCAR8 and SKOv3 SIK2 knock out cell lines were established using CRISPR/Cas9 technology known in the art. Briefly, a plasmid with GFP containing Cas9 and the sgRNA expression were transfected to cancer cells. […] Transfected cells were isolated by FACS for single-cell culture 2-3 days after transfection, and then the cells were expanded and harvested for detection of the protein expression using western analysis.

[5] = test system: MEF2D binding sites in SKOv3 ovarian cancer cells; format: cell-based, human
Protocol: Genome-wide binding of MEF2D in SKOv3 ovarian cancer cells was then examined using chromatin immunoprecipitation sequencing (Chip-seq). […] To identify a MEF2D consensus recognition sequence in ovarian cancer cells, de novo-motif discovery analysis was performed.
Chip assays were performed using the Magna Chip A Kit (Millipore). […] Nuclei were isolated and sonicated to obtain 200-1000 bp DNA fragments using the QSONICA sonicator for 30 cycles with 10 seconds pulses at 100% amplitude with 2 min of incubation on ice between pulses. […] For ChIP-Sequence, 500 μg of chromatin per sample was immunoprecipitated with 40 μg of MEF2D antibody. Input determined from 1% of the cell lysate was used as a negative control. Purified and enriched DNA was quantified using real time quantitative PCR (RT-qPCR) with the following primers. […] Analysis of qPCR data was calculated using fold enrichment method (The ChIP signals are divided by the IgG antibody signals, 2^-DDCt).
Sequencing was performed by the Sequencing and Microarray Facility (SMF) at MD Anderson Cancer Center. […] Libraries were amplified by 8 cycles of PCR and then size distribution was assessed using the 4200 TapeStation High Sensitivity D1000 ScreenTape (Agilent Technologies) and quantified using the Qubit dsDNA HS Assay Kit (ThermoFisher). […] The raw reads were first preprocessed to remove sequencing adapters and low quality reads. […]

[6] = test system: ovarian cancer cell lines; assay: cells; details: read-out: IC50, growth of ovarian cancer cell lines
[7] = test system: MEF2D binding to FANCD2, EXO1, XRCC4; assay: ChIP-qPCR of MEF2D binding to promoter/enhancer regions; format: cell-based, human; details: for MEF2D binding to EXO1 and XRCC4 promoter/enhancer regions: all cell lines tested; for MEF2D-association with the FANCD2 promoter/enhancer region: all four cell lines assessed
Protocol: (A) Alterations affecting MEF2 family genes in ovarian and breast cancer by TCGA analysis. […] Data and plots were obtained using cBioPortal (21, 58, 59). (B) MEF2D consensus DNA motifs. The MEF2 motif is enriched in MEF2D-binding sites in SKOv3 cells. (C) GO analysis of MEF2D-bound genes. […] (E) Chip and RT-qPCR analysis of FANCD2, EXO1, and XRCC4 genes. […] Chip pull-down samples were analyzed by RT-qPCR.
(A) MEF2D-binding sites in human ovarian cancer cells. (B) Chip analysis of FANCD2, EXO1, and XRCC4 genes. […] Chip pull-down samples were analyzed by RT-qPCR using as indicated.
Chip assays were performed using the Magna Chip A Kit (Millipore). […] Nuclei were isolated and sonicated to obtain 200-1000 bp DNA fragments using the QSONICA sonicator for 30 cycles with 10 seconds pulses at 100% amplitude with 2 min of incubation on ice between pulses. For individual ChIP assay, 100 μg of soluble chromatin per sample was immunoprecipitated with 8 μg of mouse IgG control antibody (Santa Cruz, sc-2025), 8 μg of rabbit control antibody (Millipore, PP64B), 8 μg of MEF2D antibody (Santa Cruz, sc-27115 3×), 8 μg of RNA polymerase II antibody (Abcam, ab817), 6 μg of Histone H3 (acetyl K27) antibody (Abcam, ab45173) or 6 μg of Histone H3 (tri methyl K4) (Abcam, ab8580). For ChIP-Sequence, 500 μg of chromatin per sample was immunoprecipitated with 40 μg of MEF2D antibody. Input determined from 1% of the cell lysate was used as a negative control. Purified and enriched DNA was quantified using real time quantitative PCR (RT-qPCR) with the following primers. FANCD2D Forward, 5′-ACCTGTTATGAGCGTGAAGTC-3′ (SEQ ID NO:1) and Reverse, 5′-GATGCAGGACTGTGCATTAGA-3′ (SEQ ID NO:2); EXD2 Forward, 5′-GGTCTGGCCTAAGGTTTCTTC-3′ (SEQ ID NO:3) and Reverse, 5′-CAG TTC ACG CTG GGT TCT T-3′ (SEQ ID NO:4); and XRCC Forward, 5′-GCAGTCTTCCTAGTCTCAACT-3′ (SEQ ID NO:5) and Reverse, 5′-TTGCCCTTCTAGGAGCTTAATG-3′ (SEQ ID NO:6). RT-qPCR was performed using iTaq Universal SYBR Green Supermix (Bio-Rad, 172-5124) in a CFX Connect RT-qPCR (Bio-Rad). Thermal cycling condition was as follows: 94° C. for 10 min, followed by 40 cycles of 94° C. for 20 sec, and 60° C. for 60 sec. Analysis of qPCR data was calculated using fold enrichment method (The ChIP signals are divided by the IgG antibody signals, 2^-DDCt).

[8] = Toxicology / pre-clinical studies, hematologic toxicity; format: in vivo
organoid = assay: Organoid growth; format: cell-based
Protocol: To evaluate additive or synergistic interactions, a combination Index (CI value) was calculated with CalcuSyn software.

[9] = test system: MDA-MB-231 orthotopic xenografts; assay: MDA-MB-231 orthotopic xenografts (paclitaxel sensitivity study); format: in vivo, mice

Compound	tumor growth (SKOv3 xenografts)	tumor burden / tumor volume (MDA-MB-231 xenografts)	levels of γ-H2AX and tailed DNA [1]	sensitivity of DT40 PARP-1 −/− cells (DT40 PARP-1 −/− cells)	IC50 in cells with stable ectopic expression of SIK2 [2]	nuclear p-HDAC5 staining [3]	IC50 in SIK2 deficient cells compared to control cells [4]	MEF2D binding sites [5]	IC50 [6]	MEF2D binding to EXO1 and XRCC4 promoter/enhancer regions [7]	MEF2D-association with the FANCD2 promoter/enhancer region [7]	hematologic toxicity [8]	organoid growth (organoid)	survival of mice [9]	xenograft growth [9]	nuclear γ-H2AX staining [3]
O=C(c1cc(Cc2n[nH]c(=O)c3ccccc23)ccc1F)N1CCN(C(=O)C2CC2)CC1 [Olaparib, reference compound]	significantly inhibited tumor growth	tumor burden remained unchanged	modestly increased	resisted	increased IC50	not	lower IC50	–	–	–	–	–	–	–	–	–
COc1c(F)cc(F)cc1-c1c[nH]c2ncc(-c3cnn(C4CCNCC4)c3)cc12 [Compound A, 3-(3,5-difluoro-2-methoxyphenyl)-5-(1-(piperidin-4-yl)-1H-pyrazol-4-yl)-1H-pyrrolo[2,3-b]pyridine]	–	–	modestly increased	–	–	–	–	36 binding sites	800 to 2600 nM	significantly decreased	decreased	–	–	–	–	–
COc1c(F)cc(F)cc1-c1c[nH]c2ncc(-c3cnn(C4CCN(S(C)(=O)=O)CC4)c3)cc12 [Compound B, 3-(3,5-difluoro-2-methoxyphenyl)-5-(1-(1-(methylsulfonyl)piperidin-4-yl)-1H-pyrazol-4-yl)-1H-pyrrolo[2,3-b]pyridine]	–	tumor burden remained unchanged	modestly increased	–	–	decreased	–	–	800 to 2600 nM	significantly decreased	decreased	minimal hematologic toxicity; also recorded: little or no hematopoietic toxicity	inhibits organoid growth inducing cell death	prolonged the survival	inhibited xenograft growth	increased nuclear γ-H2AX staining
